Measurements: patent US20210275605A1, “COMPOSITIONS COMPRISING BACTERIAL STRAINS” (4D Pharma Research Limited, priority 2018, published 2021)
Values joined by “and” are separate entries in the source; they are usually repeats but may differ in a detail not shown here. Equal values may be shown once.

Tests used:
histone deacetylase [1] = test: Histone deacetylase activity in whole HT-29 cells; assay type: cell-based; settings: pure substance; for total HDAC activity inhibition: whole cells or lysate not distinguished
Description: The cell line HT-29 was used because histone deacetylase is present.
Cell free supernatants of stationary phase bacterial cultures were isolated by centrifugation and filtering in a 0.22 uM filter. HT-29 cells were used 3 days' post confluence and stepped down in 1 mL DTS 24 hours prior to commencement of the experiment. The HT-29 cells were challenged with 10% cell free supernatant diluted in DTS and was is left to incubate for 48 hours. […] extraction kit and samples were snap frozen prior to HDAC activity measurement. HDAC activity was assessed fluorometrically using the Sigma Aldrich (UK) kit.
(§1) To investigate which metabolites were responsible for the strain-induced HDAC inhibition, different concentrations of hexanoic acid, valeric acid and sodium butyrate were measured for their HDAC inhibition on whole HT-29 cells and on HT-29 cell lysate.

IL-6 = IL-6 secretion by U373 glioblastoma astrocytoma cells (ELISA); assay type: cell-based, human; settings: for LPS-induced secretion of IL-6 in U373 cells, SCFAs: LPS pre-treatment 1 h, increasing concentrations of pure fatty acid
Description: MG U373 is a human glioblastoma astrocytoma derived from a malignant tumour and were purchased from Sigma-Aldrich (cat n. 08061901-1VL). MG U373 human glioblastoma astrocytoma cells were grown in MEM (Sigma Aldrich, cat n. M-2279) supplemented with 10% FBS, 1% Pen Strep, 4 mM L-Glut, 1×MEM Non essential Amino Acid solution and 1× Sodium Pyruvate.
Once grown the MG U373 cells were plated on 24-well plate at 100,000 cells/well. The cells were treated with LPS (1 ug/mL) alone or with 10% of bacteria supernatant from MRx0029 for 24 h. A control was also performed where the cells were incubated in untreated media. Afterwards the cell free supernatants were collected, centrifuged at 10,000 g for 3 min at 4° C. IL-6 was measured using the Human IL-6 ELISA Kit from Peprotech (cat n.#900-K16) according to manufacturer instructions.
Human glioblastoma astrocytoma cell line (U373), were maintained in 25 ml MEME 4.5 g/L D-glucose supplemented with 10% heat-inactivated FBS, 4 mM L-Glutamine, 100 U/ml penicillin, 100 μg/ml streptomycin and 5 μg/ml plasmocin, 1% Non-Essential Amino Acids, 1% Sodium Pyruvate (referred to as full growth media).
Cells were plated in 24-well plates at a density of 100,000 cells/well in 1 ml of full growth media and left to rest at 37° C./5% CO2 for 72 h. On the day of the treatment, the media was removed from each well, cells were rinsed with 0.5 ml wash media (serum free MEME), 0.9 ml stimulation media (MEME media containing 2% FBS) containing 1 μg/ml LPS was added to the appropriate wells and incubated at 37° C. and 5% CO2. After 1 h pre-incubation, cells were removed from CO2 incubator and treated with 100 μl bacteria supernatant. YCFA+ media was used as control. […]
Secretion of IL-6 was analysed using hIL-6 Standard ELISA Kits, according to the manufacturer's protocol in the cell-free supernatants from U373 cells treated as described above. Samples were measured at 405 nm with correction wavelength set at 655 nm on a microplate reader (iMark, Bio-Rad). Raw data were plotted and analysed using GraphPad Prism 7 software. […]

histone deacetylase [2] = test: HDAC inhibition on HT-29 cell lysate; assay type: biochemical; settings: pure substance, different concentrations
Description: as §1

C57BL/6J mice = test: DSS-induced colitis mouse model, ileum histology; assay type: in vivo; settings: for COLITIS SCORING mean ± SEM: group mean, n = 9, 3% DSS; for COLITIS SCORING mean ± SEM / COLITIS SCORING (sum) / Depletion of goblet cells score / Edema score / Erosion (epithelial cell damage) score / Leucocytes Infiltration score: Day 7; for COLITIS SCORING (sum) / Depletion of goblet cells score / Edema score / Erosion (epithelial cell damage) score / Leucocytes Infiltration score: ileum histology, individual mouse, 3% DSS
Description: The objective of this study was to determine the prophylactic efficacy of MRX029 in a DSS-induced colitis mouse model, upon repeated oral administration.
Tacrolimus was dosed at 1 mg/kg/day
Valproic acid was dosed at 200 mg/kg/day
PBS, YCFA and bacterial cultures were dosed at 200 μL/day
PBS, YCFA and live bacteria were be daily administered per os (PO) under a fixed volume of 200 μL/mouse
Tacrolimus will be daily administered subcutaneously (SC) under a volume of 10 mL/kg Valproic acid will be daily administered per os (PO) under a volume of 10 mL/kg
Each of sixty three, 6 week old healthy male C57BL/6J mice were obtained from Charles River (France) and individually identified and labelled with a specific code. Each treatment group (9 animals/group) were housed in three different cages.
Animals were dosed by extracting the dosing aliquot from the Hungate tube using a syringe and a 0.8×40 mm needle injected through the septum. The Hungate tube was mixed by inversion before the dosing aliquot was extracted. The first 50-100 μL through the gavage needle and each mouse was dose with 200 μL of culture by oral gavage
Days −7 to Day −1: Treatment with bacteria and reference substances according the treatment table above • Once daily oral administration of PBS, YCF A or Bacteria—200 μL per mouse • Once daily oral administration of Valproic acid at 200 mg/kg/day under a volume of 10 mL/kg
From Day O to Day+7: DSS administration • Administration of 3% DSS in the drinking water
From Day O to Day+6: Treatment with bacteria and reference substances • Once daily oral administration of PBS, YCFA or Bacteria—200 μL per mouse • Once daily oral administration of Valproic acid-200 mg/kg in sterile distilled water—10 mL/kg • Once daily SC administration of Tacrolimus—1 mg/kg in sterile 1% Tween80, 0.9% NaCl −10 mL/kg
Day +7: Sacrifice of all groups and tissue harvesting • Euthanasia of animals was performed under gas anesthesia (lsoflurane) followed by exsanguination and cervical dislocation. Euthanasia methods used are those recommended for mice and rats by European directive 20 I 0/63/CE and the procedure describing euthanasia methods was approved by IACUC. • Laparotomy and ileum harvesting, just upstream of the caecum (from 0.5 cm and on)—all tissue harvested from exactly the same area between all mice: • 1.5 cm swiss-rolled ileum was harvested for histology, the closest to the caecum
Ileum Swiss-rolls specimens were embedded in paraffin and sections of 5 μm thickness were cut and mounted on SuperFrost Ultra plus glass slides. HP (Hematoxylin-Phloxin) staining & AB-PAS (Alcian Blue-Periodic Acid Schiff) staining were performed to visualize histomorphologic changes. A scoring based on edema, erosion, loss of crypts/goblet cells and infiltrates was established on each animal, using the criteria in the following table: […]

SMILES | total HDAC activity inhibition (histone deacetylase [1]) | LPS-induced secretion of IL-6 in U373 cells, SCFAs (IL-6) | COLITIS SCORING mean ± SEM (C57BL/6J mice) | COLITIS SCORING (sum) (C57BL/6J mice) | Depletion of goblet cells score (C57BL/6J mice) | Edema score (C57BL/6J mice) | Erosion (epithelial cell damage) score (C57BL/6J mice) | Leucocytes Infiltration score (C57BL/6J mice) | further results
CCCCC(=O)O [valeric acid] | significant HDAC inhibition | – | – | – | – | – | – | – | total HDAC activity inhibition (histone deacetylase [1]; listed as Valeric acid): inhibited total HDAC activity
CCCC(=O)[O-].[Na+] [sodium butyrate] | significant HDAC inhibition | inhibited LPS-induced secretion of IL-6 in U373 cells in a concentration-dependent manner | – | – | – | – | – | – | basal IL-6 secretion in U373 cells (IL-6; absence of LPS): decreased the basal level of IL-6; HDAC inhibition on whole HT-29 cells (histone deacetylase [1]; different concentrations): significant (P<0.05) inhibition of HDAC activity; HDAC inhibition on HT-29 cell lysate (histone deacetylase [2]): significant (P<0.05) inhibition of HDAC activity
C=CC[C@@H]1/C=C(\C)C[C@H](C)C[C@H](OC)[C@H]2O[C@@](O)(C(=O)C(=O)N3CCCC[C@H]3C(=O)O[C@H](/C(C)=C/[C@@H]3CC[C@@H](O)[C@H](OC)C3)[C@H](C)[C@@H](O)CC1=O)[C@H](C)C[C@@H]2OC [Tacrolimus] | – | – | 0.44 | 0 (6×) and 2 and 1 (2×) | 0 | 0 | 0 | 0 (6×) and 2 and 1 (2×) | leukocyte infiltration in the ileum, group result (C57BL/6J mice; DSS animals versus vehicle DSS groups): reduced leukocyte infiltration comparable to controls
CCCC(CCC)C(=O)O [Valproic acid, Valproic Acid] | – | – | 0.67 | 2 (2×) and 1 (2×) and 0 (5×) | 0 | 0 | 0 | 2 (2×) and 1 (2×) and 0 (5×) | –
CCCCCC(=O)O [hexanoic acid] | did show significant inhibitory activity | did not inhibit IL-6 secretion | – | – | – | – | – | – | –
